Test: in vitro
Conditions: human, hela cells

Compound	viability at 28.5 h, 10 µM [%]
O=C(O)c1cc(NC(=O)c2ccc3c(c2)C(=O)N(Cc2ccco2)C3=O)cc(C(=O)O)c1 [CBK267374]	101

Same assay, conditions: human, hela cells, % viability

Compound	viability at 28.5 h, 10 µM [%]
O=C(NCc1ccccn1)c1ccc(NS(=O)(=O)c2cccc(Cl)c2)cc1 [CBK267249]	111
O=C(Nc1ccc(N2CCN(Cc3ccccc3F)CC2)cc1)c1cccnc1 [CBK267250]	106
N#C/C(=C\c1c[nH]nc1-c1ccccc1)c1nc(-c2cccc([N+](=O)[O-])c2)cs1 [CBK267252]	96.8
O=C(Nc1ccc2nc(-c3ccco3)c(-c3ccco3)nc2c1)N1CCCCCC1 [CBK267253]	85.4
Nc1ncnc(Nc2ccc(F)cc2Cl)c1[N+](=O)[O-] [CBK267255]	93.1
Cc1ccccc1C(=O)Nc1cccc(NC(=O)c2ccc(-c3cc4ccccc4oc3=O)cc2)c1 [CBK267256]	118
CN1CCN(C(=O)c2ccc3nc(-c4ccccc4)c(-c4ccccc4)nc3c2)CC1 [CBK267257]	98.7
COC(=O)COc1ccc(Oc2nc(N(C)C)nc(N3CCOCC3)n2)nn1 [CBK267258]	104
COc1ccc(CCNc2nc(-c3ccccn3)cs2)cc1OC [CBK267260]	100
Nc1ncnc(NCCCc2ccccc2)c1[N+](=O)[O-] [CBK267261]	88.9
Cc1nc(C)c(-c2csc(Nc3ccc(C(=O)O)c(O)c3)n2)s1 [CBK267263]	101
O=C(O)CCNS(=O)(=O)c1cccc(F)c1 [CBK267264]	115
COc1ccc(NC(S)=NCCN2CCC(C)CC2)cc1Cl [CBK267268]	84
N#C/C(=C\c1ccc2noc(-c3ccccc3)c2c1)c1nc(-c2cc3ccccc3oc2=O)cs1 [CBK267269]	90.2
O=[N+]([O-])c1ccccc1S(=O)(=O)N1CCN(c2ccnc3cc(Cl)ccc23)CC1 [CBK267271]	92.1
CC1CCc2c(sc3nc(SCC(=O)NC(c4ccccc4)c4ccccc4)nc(N)c23)C1 (stereo not shown) [CBK267274]	91.1
Cc1cc(C)c(C)c(S(=O)(=O)Nc2ccc(C(=O)NCc3ccccn3)cc2)c1C [CBK267275]	85.8
O=C(Nc1ccccc1N1CCN(C(=O)c2ccc(Cl)cc2)CC1)c1ccc(-c2cc3ccccc3oc2=O)cc1 [CBK267280]	92.3
CN(C)c1nc(NCc2ccccc2)nc(SCC(=O)Nc2ccc(Cl)c(Cl)c2)n1 [CBK267289]	97
CC(=O)Nc1ccc(-c2csc(Nc3ccc(S(=O)(=O)Nc4nc(C)cc(C)n4)cc3)n2)cc1 [CBK267295]	87
C=CCOc1ccc2ccccc2c1CNc1nc[nH]n1 [CBK267296]	87.9

Compound	viability at 28.5 h, 10 µM [%]
O=C(NCc1ccccn1)c1ccc(CNS(=O)(=O)c2cccc(Cl)c2)cc1 [CBK267297]	100
Cc1cc(NS(=O)(=O)c2ccc(Nc3nc(-c4ccc(Cl)cc4Cl)cs3)cc2)no1 [CBK267298]	104
CC(=O)C1=C(c2ccccc2)NC(=S)NC1c1cc(Cl)ccc1OCC(=O)O (stereo not shown) [CBK267300]	99.4
Cc1ccc(C)c(S(=O)(=O)NCC(=O)Nc2nsc(-c3ccccc3)n2)c1 [CBK267304]	97.4
O=C(Nc1ccc(S(=O)(=O)Nc2nccc(C3Cc4ccccc4C(=O)O3)n2)cc1)c1ccccc1 (stereo not shown) [CBK267306]	105
O=C(CSc1nnc(-c2ccco2)n1-c1ccccc1)NCc1ccc2c(c1)OCO2 [CBK267308]	85.3
Clc1cccc(-c2nc(NCCCN3CCOCC3)c3ccccc3n2)c1 [CBK267309]	76
O=[N+]([O-])c1cccc(-c2ccc(-c3nn4c(Cc5ccccc5)nnc4s3)o2)c1 [CBK267310]	86.4
O=C(CN1CCOCC1)Nc1ccc(Br)cc1[N+](=O)[O-] [CBK267314]	96.9
O=C(NCCN1CCOCC1)c1cccc(S(=O)(=O)N2CCCC2)c1 [CBK267316]	98.2
CCOc1ccc(-c2cn(C(=O)Nc3ccccc3)nc2N)cc1 [CBK267317]	90.3
COc1ccc(Cl)cc1NC(=O)CC1NC2CCCCC2NC1=O (stereo not shown) [CBK267318]	80.4
Nc1ncnc(NCCc2ccc(S(N)(=O)=O)cc2)c1[N+](=O)[O-] [CBK267320]	86.4
CC(=O)Nc1ccc(NC(=O)COc2c(C)cc(Br)cc2C)cc1 [CBK267321]	101
C=CCSc1nc(-c2ccc(OCCC)cc2)n[nH]1 [CBK267323]	100
CC(C)(C)NS(=O)(=O)c1ccc(NC(=O)NC2CCCCC2)cc1 [CBK267324]	96.7
COc1ccc([N+](=O)[O-])cc1NC(=O)c1ccc(-c2cc3ccccc3oc2=O)cc1 [CBK267325]	79.1
Cc1ccc(C(=O)O)cc1S(=O)(=O)N1CCC(C(=O)O)CC1 [CBK267327]	107
O=C(O)CCNS(=O)(=O)c1cccc(Cl)c1 [CBK267328]	106
Cc1cc(/C=C\c2nc(O)c([N+](=O)[O-])c(=O)[nH]2)c(C)n1-c1ccc(C(=O)O)cc1 [CBK267334]	96.4
Cc1nc2ccccc2n1CC(=O)NCCN1CCCC1 [CBK267336]	113

Compound	viability at 28.5 h, 10 µM [%]
O=C(Nc1ccc(N2CCN(C(=O)c3cccs3)CC2)cc1)c1ccc(-c2cc3ccccc3oc2=O)cc1 [CBK267340]	96.2
CC1(C)CC(=O)C2=C(C1)Nc1ccccc1N(C(=S)NCc1ccco1)C2c1cccnc1 (stereo not shown) [CBK267342]	89.4
c1ccc(-c2nnc3sc(-c4ccccn4)nn23)cc1 [CBK267344]	96.2
CCCn1cc(C(CC(=O)O)C(=O)O)c2ccccc21 (stereo not shown) [CBK267345]	92.4
Cc1nc(C)c(-c2csc(Nc3ccc(O)cc3C)n2)s1 [CBK267346]	98.7
CCCCC12CN3CC(C)(CN(C1)C31C(=O)Nc3ccc(Br)cc31)C2=O (stereo not shown) [CBK267348]	96
Cc1ccc(C)c(NC(=O)C2CN(S(=O)(=O)c3ccccc3)CCN2S(=O)(=O)c2ccccc2)c1 (stereo not shown) [CBK267349]	93.5
Nc1ncnc(NCCc2ccc(Cl)cc2)c1[N+](=O)[O-] [CBK267351]	88.3
Cc1nc(N)sc1-c1nnc(Nc2ccccc2)s1 [CBK267353]	82.7
O=C(O)c1ccc(-c2ccc(/C=C/c3nc(O)c([N+](=O)[O-])c(=O)[nH]3)o2)cc1Cl [CBK267354]	88.1
CC(Oc1ccc(Cl)cc1Cl)C(=O)NC(=S)Nc1ccc2c(c1)C(=O)N(C)C2=O (stereo not shown) [CBK267356]	93.9
Cc1nc(N)sc1-c1csc(Nc2cccc(C(F)(F)F)c2)n1 [CBK267357]	95.2
CCc1cc(OCCCSc2nc(C)cc(O)n2)ccc1Cl [CBK267364]	106
CN(CCCc1nc(-c2ccc(Cl)cc2)no1)S(=O)(=O)c1ccc([N+](=O)[O-])cc1 [CBK267365]	96
CN1CCN(NC(=O)CN(C)S(=O)(=O)c2cc(Cl)ccc2Cl)CC1 [CBK267366]	94.2
Cc1cc(C)c2c(c1)C1(C(=O)N2)C(C#N)=C(N)Oc2[nH]nc(-c3ccccc3)c21 (stereo not shown) [CBK267367]	100
CC(CNC(=O)COc1ccc2ccccc2c1Br)CN(C)C (stereo not shown) [CBK267369]	94.9
Cc1cc(O)nc(SCCOCCSc2ccc(Cl)cc2)n1 [CBK267372]	94
CN(CC(=O)NNC(=O)c1ccc(C(C)(C)C)cc1)S(=O)(=O)c1cc(Cl)ccc1Cl [CBK267376]	107
O=S(=O)(NCc1ccco1)c1ccc2c(c1)Cc1ccccc1-2 [CBK267377]	95.5
COc1ccc(/C(N)=N/OC(=O)C(C)Oc2ccc(C(C)(C)C)cc2)cc1OC (stereo not shown) [CBK267378]	94.9

Compound	viability at 28.5 h, 10 µM [%]
CCN1CCN(CCCOc2ccccc2Cc2ccccc2)CC1 [CBK267379G]	95
CN(CCCC(=O)Nc1nnc[nH]1)S(=O)(=O)c1ccccc1 [CBK267380]	82.4
O=C(O)CCCC(=O)Nc1ccc([N+](=O)[O-])cc1O [CBK267384]	102
CN(Cc1nc(-c2cccnc2)no1)S(=O)(=O)c1ccc2ccccc2c1 [CBK267385]	87.2
O=C(Nc1ccc(Cl)cc1Cl)NC(Cc1ccc(O)cc1)C(=O)O (stereo not shown) [CBK267386]	90.9
COc1cc([N+](=O)[O-])ccc1NC(=O)CN(C)S(=O)(=O)c1ccc2ccccc2c1 [CBK267387]	97.5
CC(O)Cc1nnc(SCC(=O)c2ccc([N+](=O)[O-])cc2)n1-c1ccccc1 (stereo not shown) [CBK267389]	81.1
O=C(COc1ccc2ccccc2c1Br)NCCN1CCOCC1 [CBK267391]	89.7
C=CCc1cc(C)cc(C)c1OCCN1CCN(CC)CC1 [CBK267392G]	93.7
Nc1nc(CSc2nnc(-c3ccccc3O)n2Cc2ccccc2)cs1 [CBK267394]	90.4
COc1cc(OC)c(NC(=O)CN(C)S(=O)(=O)c2cc(Cl)ccc2Cl)cc1Cl [CBK267399]	91.3
O=C(O)CCN1C(=O)c2ccc(Oc3ccc(NC(=O)c4ccc(Cl)c(Cl)c4)cc3)cc2C1=O [CBK267400]	90.6
O=C(O)CCC(=O)Nc1ccc(-c2nc3cc(C(=O)c4ccccc4)ccc3[nH]2)cc1 [CBK267401]	100
Cc1cc(=O)oc2cc(OCc3ccc(S(=O)(=O)N4CCOCC4)cc3)ccc12 [CBK267402]	91.3
COc1cc2c(cc1NC(=O)CN(C)S(=O)(=O)c1ccc(Cl)cc1)oc1ccccc12 [CBK267404]	93.6
O=C(Nc1ccc(Cl)cc1)NC(C(=O)O)c1ccccc1 (stereo not shown) [CBK267405]	94.9
Cc1ccccc1OCc1nnc(SCc2nnc(-c3ccccc3)o2)n1C [CBK267406]	90.1
Cc1cc(O)nc(SCCCSc2ccccc2)n1 [CBK267415]	114
Cc1c(Cl)cc(C(C)C)c(O)c1CNC(=O)CSc1nnc(-c2cccs2)n1C [CBK267416]	94.6
Nc1nnc(SCC(=O)NC23CC4CC(CC(C4)C2)C3)s1 [CBK267417]	97.1
COCCCNCC#CCOc1ccccc1OC [CBK267419G]	94.5

— article PMC12040169 (PLOS Biology, 2025)
